Consider 17 compounds from US20240043386A1, “Modulators of the Cystic Fibrosis Transmembrane Conductance Regulator Protein and Methods of Use” (AbbVie Global Enterprises Ltd., priority 2021, published 2024).

For one experiment, the target named is T1, F508del/F508del CFTR (Homo sapiens, UniProt P13569, DEL508-508).
T1 construct: cells isolated from CF patients with the homozygous mutation; endogenous in cells; host or cells: primary human bronchial epithelial (hBE) cells from CF patients homozygous for F508del
Briefly: Trans-Epithelial Current Clamp (TECC) assay using primary human bronchial epithelial cells. The conditions noted are these: for Emax (% Dual): maximum percent activity relative to positive control (co-corrector 0.15 μM + potentiator 0.45 μM = 100%), primary hBE cells F508del/F508del; for EC50: primary hBE cells homozygous F508del/F508del, test C2 corrector with co-corrector and potentiator, 18-24 hours at 37° C., equivalent CFTR current (IEQ)/AUC. Format: cell-based. An outline of the steps:
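F508del/F508del primary hBE cells grown 35 days at air-liquid interface were treated basolaterally with C2 correctors plus fixed co-corrector and potentiator for 18-24 h at 37° C. TECC-24 current clamp at 36.5° C in HEPES-buffered F-12 Coon's, pH 7.4; equivalent current IEQ=VT/RT, plus AUC between forskolin peak and bumetanide.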

The target in the next experiment is T2, F508delCFTR (Homo sapiens, UniProt P13569, DEL508-508).
T2 construct: expressed in transfected cells; host or cells: CFBE41o- human lung-derived epithelial cell line, doxycycline-inducible expression
Briefly: Cell Surface Expression-Horse Radish Peroxidase (CSE-HRP) assay in CFBE41o-F508delCFTR-HRP cells. Type of experiment: cell-based. The note with it: for EC50: CFBE41o-F508delCFTR-HRP cells, 18-24 hours at 33° C., luminescence; for Maximum % activity (with co-corrector) / Maximum % activity (without co-corrector): normalized to on-plate positive control corrector (2 μM). The method, boiled down:
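CFBE41o- cells expressing F508delCFTR with HRP in the fourth exofacial loop were doxycycline-induced (0.5 μg/mL) for 68–72 h, then exposed to correctors for 18–24 h at 33 °C, with or without 2 μM co-corrector. Surface HRP was read by luminol luminescence, and % activity was normalized to the on-plate positive control; EC50 came from a variable-slope sigmoidal fit (8 points, 3-fold dilution, 20 or 30 μM top).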

The mark [1] stands for this setting: with co-corrector (2 μM), read-out: EC50 (with co-corrector).
Setting [2] is: without co-corrector, read-out: EC50 (without co-corrector).

Like-named read-outs stand apart in the source and are kept apart here.

T1 sequence (P13569 with tags, fused parts or gaps DEL508-508): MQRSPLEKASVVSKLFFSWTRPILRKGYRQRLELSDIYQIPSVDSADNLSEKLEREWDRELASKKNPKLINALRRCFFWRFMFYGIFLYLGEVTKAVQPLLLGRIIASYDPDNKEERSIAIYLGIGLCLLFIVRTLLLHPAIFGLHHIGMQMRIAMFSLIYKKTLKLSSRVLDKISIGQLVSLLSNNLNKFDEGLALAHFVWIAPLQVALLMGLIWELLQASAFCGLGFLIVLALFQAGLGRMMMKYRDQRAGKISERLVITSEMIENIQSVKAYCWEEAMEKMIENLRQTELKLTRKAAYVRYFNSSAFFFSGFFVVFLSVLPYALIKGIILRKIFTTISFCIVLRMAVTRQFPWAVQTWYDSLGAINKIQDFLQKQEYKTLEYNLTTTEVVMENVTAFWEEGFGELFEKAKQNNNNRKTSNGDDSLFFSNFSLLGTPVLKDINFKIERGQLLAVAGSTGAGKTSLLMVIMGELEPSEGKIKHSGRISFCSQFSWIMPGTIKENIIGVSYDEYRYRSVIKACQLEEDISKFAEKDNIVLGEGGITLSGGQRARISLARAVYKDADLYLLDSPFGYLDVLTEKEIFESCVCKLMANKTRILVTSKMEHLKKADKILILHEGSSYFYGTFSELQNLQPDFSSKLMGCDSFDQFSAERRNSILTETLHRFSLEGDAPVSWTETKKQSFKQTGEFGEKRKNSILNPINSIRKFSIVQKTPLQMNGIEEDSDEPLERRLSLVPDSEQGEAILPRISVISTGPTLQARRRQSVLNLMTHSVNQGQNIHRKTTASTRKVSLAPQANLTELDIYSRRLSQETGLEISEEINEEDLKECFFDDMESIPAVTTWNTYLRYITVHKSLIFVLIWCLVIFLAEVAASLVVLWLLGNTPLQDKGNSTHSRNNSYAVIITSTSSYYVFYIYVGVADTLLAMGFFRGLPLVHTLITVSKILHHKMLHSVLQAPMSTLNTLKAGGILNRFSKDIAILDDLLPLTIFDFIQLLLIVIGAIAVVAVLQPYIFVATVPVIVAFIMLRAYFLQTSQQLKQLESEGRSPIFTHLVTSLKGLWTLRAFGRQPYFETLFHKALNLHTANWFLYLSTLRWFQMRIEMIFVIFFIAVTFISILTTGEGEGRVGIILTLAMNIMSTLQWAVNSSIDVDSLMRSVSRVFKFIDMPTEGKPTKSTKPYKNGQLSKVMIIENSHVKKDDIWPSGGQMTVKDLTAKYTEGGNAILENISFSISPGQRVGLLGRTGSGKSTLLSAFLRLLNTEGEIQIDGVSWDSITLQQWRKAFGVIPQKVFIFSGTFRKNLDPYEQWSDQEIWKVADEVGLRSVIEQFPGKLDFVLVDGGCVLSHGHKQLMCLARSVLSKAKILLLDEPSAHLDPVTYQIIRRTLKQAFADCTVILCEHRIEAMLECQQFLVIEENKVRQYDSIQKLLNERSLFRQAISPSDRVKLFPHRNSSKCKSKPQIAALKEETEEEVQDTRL
T2 sequence (P13569 with tags, fused parts or gaps DEL508-508): as above

Broadly, the EC50 is the midpoint of the concentration-response curve. On to `COc1ccc(C)cc1[C@@]1(C(=O)NS(=O)(=O)c2cccc3nc(C)ccc23)C[C@H]1c1cccnc1OC` (racemic) [Example 40, rac-(1r,2s)-1-(2-methoxy-5-methylphenyl)-2-(2-methoxypyridin-3-yl)-N-(2-methylquinoline-5-sulfonyl)cyclopropane-1-carboxamide], for which the “Emax (% Dual)” value at F508del/F508del CFTR was 328 % Dual. For the same compound, the EC50 came to 19.6 nM at F508del/F508del CFTR, 749 nM on F508delCFTR (setting [1]) and 1550 nM on F508delCFTR (setting [2]). The “Maximum % activity (with co-corrector)” value on F508delCFTR (with co-corrector (2 μM)) turned out to be 934%. Further, the “Maximum % activity (without co-corrector)” value on F508delCFTR (without co-corrector) is reported as 448%.

`COc1ccc(C)cc1[C@@]1(C(=O)NS(=O)(=O)c2cccc3nc(C)ccc23)C[C@H]1c1ccc(C)cc1` (single isomer, unassigned) [Example 6]: at F508del/F508del CFTR, the “Emax (% Dual)” value came out at 378 % Dual. The EC50 on F508del/F508del CFTR worked out at 5.3 nM; at F508delCFTR (setting [1]), 202 nM; on F508delCFTR (setting [2]), 187 nM. Besides, the “Maximum % activity (without co-corrector)” value at F508delCFTR (without co-corrector) turned out to be 982%.

Consider `COc1cncc([C@@H]2C[C@]2(C(=O)NS(=O)(=O)c2cccc3nc(C)ccc23)c2cc(C)ccc2OC)c1` (single isomer, unassigned) [Example 51], for which the “Emax (% Dual)” value on F508del/F508del CFTR came out at 135 % Dual. For the same compound, the EC50 on F508del/F508del CFTR is greater than 300 nM; at F508delCFTR (setting [1]), 4380 nM; on F508delCFTR (setting [2]) it was 5440 nM. For the same compound, the “Maximum % activity (with co-corrector)” value at F508delCFTR (with co-corrector (2 μM)) was 406%. In addition, the “Maximum % activity (without co-corrector)” value at F508delCFTR (without co-corrector) worked out at 108%.

In the case of `COc1cccc([C@@H]2C[C@]2(C(=O)NS(=O)(=O)c2cccc3nc(C)ccc23)c2cc(C)ccc2OC)n1` [Example 44, (1R,2R)-1-(2-methoxy-5-methylphenyl)-2-(6-methoxypyridin-2-yl)-N-(2-methylquinoline-5-sulfonyl)cyclopropane-1-carboxamide], the “Emax (% Dual)” value on F508del/F508del CFTR is given as 193 % Dual. Besides, the EC50 turned out to be 16.6 nM at F508del/F508del CFTR, 865 nM at F508delCFTR (setting [1]) and 1410 nM at F508delCFTR (setting [2]). Also, the “Maximum % activity (with co-corrector)” value on F508delCFTR (with co-corrector (2 μM)) worked out at 982%. The “Maximum % activity (without co-corrector)” value at F508delCFTR (without co-corrector) was 384%.

For `COc1ccc(C)cc1[C@@]1(C(=O)NS(=O)(=O)c2cccc3nc(C)ccc23)C[C@H]1c1cnc(C)c(F)c1` (single isomer, unassigned) [Example 101], on F508del/F508del CFTR, the “Emax (% Dual)” value is recorded as 199 % Dual. The 50% effective concentration (EC50) on F508del/F508del CFTR is 147 nM; on F508delCFTR (setting [1]), 884 nM; at F508delCFTR (setting [2]), 1000 nM. Also, the “Maximum % activity (with co-corrector)” value at F508delCFTR (with co-corrector (2 μM)) was 842%. On F508delCFTR (without co-corrector), the “Maximum % activity (without co-corrector)” value was determined as 243%.

Regarding `COc1ccc(C)cc1[C@@]1(C(=O)NS(=O)(=O)c2cccc3nc(C)ccc23)C[C@H]1c1ccccc1` (racemic) [Example 1, rac-(1r,2s)-1-(2-methoxy-5-methylphenyl)-N-(2-methylquinoline-5-sulfonyl)-2-phenylcyclopropane-1-carboxamide], the “Emax (% Dual)” value on F508del/F508del CFTR is recorded as 389 % Dual. For the same compound, the values for the EC50 on F508del/F508del CFTR, on F508delCFTR (setting [1]) and on F508delCFTR (setting [2]) were 5 nM, 1430 nM and 2840 nM, respectively.

Take `COc1ccc(C)cc1[C@@]1(C(=O)NS(=O)(=O)c2cccc3nc(C)ccc23)C[C@H]1c1ccc(C(C)C)nc1OC` (racemic) [Example 78, rac-(1r,2s)-1-(2-methoxy-5-methylphenyl)-2-[2-methoxy-6-(propan-2-yl)pyridin-3-yl]-N-(2-methylquinoline-5-sulfonyl)cyclopropane-1-carboxamide]: at F508del/F508del CFTR, the “Emax (% Dual)” value came to 282 % Dual. For the same compound, the EC50 at F508del/F508del CFTR is 30.3 nM; on F508delCFTR (setting [1]), 364 nM; at F508delCFTR (setting [2]) it was 825 nM. For the same compound, the “Maximum % activity (without co-corrector)” value on F508delCFTR (without co-corrector) is given as 825%.

Take `COc1ccc(C)cc1[C@]1(C(=O)NS(=O)(=O)c2cccc3nc(C)ccc23)C[C@@H]1c1ccc(C)cc1` (single isomer, unassigned) [Example 7]: at F508del/F508del CFTR, the “Emax (% Dual)” value is 487 % Dual. Moreover, the EC50 came to 0.8 nM at F508del/F508del CFTR, 926 nM on F508delCFTR (setting [1]) and 1450 nM at F508delCFTR (setting [2]).

Turning to `COc1ccc(C)cc1[C@@]1(C(=O)NS(=O)(=O)c2cccc3nc(C)ccc23)C[C@H]1c1ccc(C(C)C)nc1OC` (single isomer, unassigned) [Example 87], the “Emax (% Dual)” value on F508del/F508del CFTR turned out to be 271 % Dual. The results for the EC50 at F508del/F508del CFTR, at F508delCFTR (setting [1]) and at F508delCFTR (setting [2]) were 6.9 nM, 165 nM and 452 nM, respectively. In addition, at F508delCFTR (without co-corrector), the “Maximum % activity (without co-corrector)” value stood at 881%.

Turning to `COc1ccc(C)cc1[C@]1(C(=O)NS(=O)(=O)c2cccc3nc(C)ccc23)C[C@@H]1c1cccc(C(F)(F)F)c1` (racemic) [Example 12, rac-(1r,2s)-1-(2-methoxy-5-methylphenyl)-N-(2-methylquinoline-5-sulfonyl)-2-[3-(trifluoromethyl)phenyl]cyclopropane-1-carboxamide], at F508del/F508del CFTR, the “Emax (% Dual)” value was 407 % Dual. Besides, the values for the EC50 at F508del/F508del CFTR, at F508delCFTR (setting [1]) and on F508delCFTR (setting [2]) were 0.51 nM, 327 nM and 479 nM, respectively.

As to `COc1ccc(C)cc1[C@]1(C(=O)NS(=O)(=O)c2cccc3nc(C)ccc23)C[C@@H]1c1cccc(OC(C)C)n1` [Example 97, (1S,2S)-1-(2-methoxy-5-methylphenyl)-N-(2-methylquinoline-5-sulfonyl)-2-{6-[(propan-2-yl)oxy]pyridin-2-yl}cyclopropane-1-carboxamide], the “Emax (% Dual)” value on F508del/F508del CFTR stood at 198 % Dual. Besides, the EC50 on F508del/F508del CFTR was 0.9 nM; at F508delCFTR (setting [1]), 359 nM; at F508delCFTR (setting [2]), 988 nM.

On to `CCOc1cnc([C@@H]2C[C@]2(C(=O)NS(=O)(=O)c2cccc3nc(C)ccc23)c2cc(C)ccc2OC)cn1` (racemic) [Example 62, rac-(1r,2r)-2-(5-ethoxypyrazin-2-yl)-1-(2-methoxy-5-methylphenyl)-N-(2-methylquinoline-5-sulfonyl)cyclopropane-1-carboxamide], for which the “Emax (% Dual)” value at F508del/F508del CFTR is 329 % Dual. Moreover, the values for the EC50 at F508del/F508del CFTR, on F508delCFTR (setting [1]) and on F508delCFTR (setting [2]) were 261 nM, 474 nM and 990 nM, respectively. Besides, the “Maximum % activity (without co-corrector)” value at F508delCFTR (without co-corrector) was found to be 483%.

Turning to `COc1ccc(C)cc1[C@]1(C(=O)NS(=O)(=O)c2cccc3nc(C)ccc23)C[C@@H]1c1cccc(C(F)(F)F)c1` (single isomer, unassigned) [Example 23], the “Emax (% Dual)” value at F508del/F508del CFTR is 294 % Dual. The concentration giving a half-maximal response (EC50) on F508del/F508del CFTR amounted to 6.2 nM; at F508delCFTR (setting [1]), 259 nM; at F508delCFTR (setting [2]) it was 327 nM.

For the compound `COc1ccc(C)cc1[C@]1(C(=O)NS(=O)(=O)c2cccc3nc(C)ccc23)C[C@@H]1c1ccc(C(C)C)nn1` [Example 69, (1S,2S)-1-(2-methoxy-5-methylphenyl)-N-(2-methylquinoline-5-sulfonyl)-2-[6-(propan-2-yl)pyridazin-3-yl]cyclopropane-1-carboxamide], at F508del/F508del CFTR, the “Emax (% Dual)” value came out at 111 % Dual. Also, the EC50 at F508del/F508del CFTR is greater than 300 nM; on F508delCFTR (setting [1]), 3430 nM; at F508delCFTR (setting [2]), 6010 nM. Moreover, on F508delCFTR (with co-corrector (2 μM)), the “Maximum % activity (with co-corrector)” value was determined as 495%. On F508delCFTR (without co-corrector), the “Maximum % activity (without co-corrector)” value amounted to 170%.

Consider `COc1ccc(C)cc1[C@]1(C(=O)NS(=O)(=O)c2cccc3nc(C)ccc23)C[C@@H]1c1ccc(C)nc1` [Example 11, (1S,2R)-1-(2-methoxy-5-methylphenyl)-2-(6-methylpyridin-3-yl)-N-(2-methylquinoline-5-sulfonyl)cyclopropane-1-carboxamide], for which the “Emax (% Dual)” value at F508del/F508del CFTR came out at 214 % Dual. Moreover, the figures for the EC50 on F508del/F508del CFTR, at F508delCFTR (setting [1]) and at F508delCFTR (setting [2]) were 49 nM, 2820 nM and 4600 nM, respectively. In addition, the “Maximum % activity (without co-corrector)” value at F508delCFTR (without co-corrector) is 679%.

For the compound `COc1ccc([C@@H]2C[C@]2(C(=O)NS(=O)(=O)c2cccc3nc(C)ccc23)c2cc(C)ccc2OC)c(OC)n1` (racemic) [Example 79, rac-(1r,2s)-2-(2,6-dimethoxypyridin-3-yl)-1-(2-methoxy-5-methylphenyl)-N-(2-methylquinoline-5-sulfonyl)cyclopropane-1-carboxamide], the “Emax (% Dual)” value on F508del/F508del CFTR is listed as 205 % Dual. Further, the EC50 at F508del/F508del CFTR stood at 21.6 nM; at F508delCFTR (setting [1]), 171 nM; on F508delCFTR (setting [2]), 465 nM. The “Maximum % activity (with co-corrector)” value on F508delCFTR (with co-corrector (2 μM)) turned out to be 860%. For the same compound, the “Maximum % activity (without co-corrector)” value on F508delCFTR (without co-corrector) is recorded as 388%.

Regarding `COc1ccc(C)cc1[C@@]1(C(=O)NS(=O)(=O)c2cccc3nc(C)ccc23)C[C@H]1c1cnc(C(C)C)cn1` (racemic) [Example 61, rac-(1r,2r)-1-(2-methoxy-5-methylphenyl)-N-(2-methylquinoline-5-sulfonyl)-2-[5-(propan-2-yl)pyrazin-2-yl]cyclopropane-1-carboxamide], the “Emax (% Dual)” value on F508del/F508del CFTR came to 281 % Dual. The figures for the EC50 at F508del/F508del CFTR, on F508delCFTR (setting [1]) and at F508delCFTR (setting [2]) were 74.5 nM, 1110 nM and 2440 nM, respectively. The “Maximum % activity (without co-corrector)” value on F508delCFTR (without co-corrector) was 700%.
